Source: patent US6610689B2, “HIV protease inhibitors based on amino acid derivatives” (priority 2001, dated 2003)
Where a name gives a salt, the structure may show the parent alone. Read-outs that look alike come from different tables or passages of the source.

Molecular target: T1, HIV protease (Human immunodeficiency virus type 1 group M subtype B, UniProt P04585)
T1 construct: A third viral enzyme known as protease then cleaves the polyproteins
Test: Enzymatic Assay for Determining the Inhibition Constant (Ki) of Synthetic Compounds Targeting the HIV Protease (fluorometric FRET assay)
Format: biochemical
Method in brief: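 Fluorometric FRET assay following protease cleavage of an EDANS/DABCYL-labelled substrate. Initial velocities without (Vo) and with inhibitor (Vi) measured; Ki derived from the Henderson equation using inhibitor and substrate concentrations and Km.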

[1] = Table 1, compounds of formula I, read-out: Ki (anti-protease activity)

In the case of `Cc1ccc(S(=O)(=O)N(CC(C)C)[C@@H](CCCCNC(=O)[C@@H](N)Cc2ccc(OCc3ccccc3)cc2)C(=O)O)cc1` [Example 94, Nα-Isobutyl-Nα-(4-methylbenzenesulfonyl)-Nε-(O-benzyl-L-tyrosyl)-L-lysine], the Ki is reported as 177 nM.
Work on `Cc1ccc(S(=O)(=O)N(CC(C)C)[C@H](CO)CCCCNC(=O)[C@H](Cc2ccccc2)NC(=O)c2ccccc2)cc1` [Example 95, (2S,2′S) 2-N-Isobutyl-2-N-(4-methylbenzenesulfonyl)-6-N-(N′α-benzoyl-S-phenylalanyl)-2,6-diaminohexanol] yielded a Ki of 54 nM.
`Cc1ccc(S(=O)(=O)N[C@@H](Cc2ccccc2)C(=O)NCCCC[C@@H](CO)N(CC(C)C)S(=O)(=O)c2ccc(C)cc2)cc1` [Example 96, (2S,2′S) 2-N-Isobutyl-2-N-(4-methylbenzenesulfonyl)-6-N-[N′α-(4-methylbenzenesulfonyl)-S-phenylalanyl]-2,6-diaminohexanol] showed a Ki of 16 nM.
`Cc1ccc(S(=O)(=O)N[C@@H](Cc2c[nH]c3ccccc23)C(=O)NCCCC[C@@H](CO)N(CC(C)C)S(=O)(=O)c2ccc(C)cc2)cc1` [Example 97, (2S,2′S) 2-N-Isobutyl-2-N-(4-methylbenzenesulfonyl)-6-N-[N′α-(4-methylbenzenesulfonyl)-S-tryptophanyl]-2,6-diaminohexanol] was tested, and the Ki was 3.6 nM.
`CC(=O)N[C@@H](Cc1c[nH]c2ccccc12)C(=O)NCCCC[C@@H](C(=O)O)N(CC(C)C)S(=O)(=O)c1ccc(C)cc1` [Example 99, Nα-Isobutyl-Nα-(4-methylbenzenesulfonyl)-Nε-(N′α-acetyl-L-tryptophanyl)-L-lysine] was tested, and the Ki was 0.438 nM.
`Cc1ccc(S(=O)(=O)N(CC(C)C)[C@@H](CCCCNC(=O)[C@H](Cc2c[nH]c3ccccc23)NC(=O)C(C)(C)C)C(=O)O)cc1` [Example 100, Nα-Isobutyl-Nα-(4-methylbenzenesulfonyl)-Nε-(N′α-pivaloyl-L-tryptophanyl)-L-lysine] showed a Ki of 0.388 nM.
`Cc1ccc(S(=O)(=O)N(CC(C)C)[C@@H](CCCCNC(=O)[C@H](Cc2ccccc2)NC(=O)C(F)(F)F)C(=O)O)cc1` [Example 101, Nα-Isobutyl-Nα-(4-methylbenzenesulfonyl)-Nε-(N′α-trifluoroacetyl-L-phenylalanyl)-L-lysine] gave a Ki of 2.9 nM.
In the case of `Cc1ccc(S(=O)(=O)N[C@@H](Cc2c[nH]c3ccccc23)C(=S)NCCCC[C@@H](CO)N(CC(C)C)S(=O)(=O)c2ccc(C)cc2)cc1` [Example 102], the Ki is reported as 51 nM.
`Cc1ccc(S(=O)(=O)NC(Cc2c[nH]c3ccccc23)C(=NC#N)NCCCCC(C(=O)O)N(CC(C)C)S(=O)(=O)c2ccc(C)cc2)cc1` [Example 103, Nα-Isobutyl-Nα-(4-methylbenzenesulfonyl)-Nε-[N′α-(4-methylbenzenesulfonyl)-L-tryptophanyl-N-cyanoamidine]-L-lysine] showed a Ki of 1.1 nM.
`Cc1ccc(S(=O)(=O)N(CC(C)C)C(CCCCNC(=O)C(Cc2c[nH]c3ccccc23)NS(=O)(=O)c2ccccc2)C(=O)OCC(O)CO)cc1` [Example 104, Nα-Isobutyl-Nα-(4-methylbenzenesulfonyl)-Nε-(N′α-benzenesulfonyl-L-tryptophanyl)-L-lysine 2,3-Dihydroxypropyl Ester] gave a Ki of over 300 nM.
With `Cc1ccc(S(=O)(=O)N(CC(C)C)[C@@H](CCCCNC(=O)CNc2ccccc2)C(=O)O)cc1` [Example 105, Nα-Isobutyl-Nα-(4-methylbenzenesulfonyl)-Nε-(N′α-phenylglycyl)-L-lysine] the Ki [1] was 7.7 nM.
For `Cc1ccc(S(=O)(=O)N(CC(C)C)[C@@H](CCCCNC(=O)CNc2cccnc2)C(=O)O)cc1` [Example 106, Nα-Isobutyl-Nα-(4-methylbenzenesulfonyl)-Nε-[N′α-(3-pyridyl)glycyl]-L-lysine], the Ki was over 300 nM.
Molecule `COc1cccc(CNCC(=O)NCCCC[C@@H](C(=O)O)N(CC(C)C)S(=O)(=O)c2ccc(C)cc2)c1OC` [Example 107, Nα-Isobutyl-Nα-(4-methylbenzenesulfonyl)-Nε-[N′α-(2,3-dimethoxybenzyl)glycyl]-L-lysine] has a Ki of 52 nM.
`Cc1ccc(S(=O)(=O)N(CC(C)C)[C@@H](CCCCNC(=O)CNc2ccccn2)C(=O)O)cc1` [Example 108, Nα-Isobutyl-Nα-(4-methylbenzenesulfonyl)-Nε-[N′α-(2-pyridyl)glycyl]-L-lysine] gave a Ki [1] of over 300 nM.
With `Cc1ccc(S(=O)(=O)N(CC(C)C)[C@@H](CCCCNC(=O)CNCCN2CCCCC2)C(=O)O)cc1` [Example 110, Nα-Isobutyl-Nα-(4-methylbenzenesulfonyl)-Nε-[N′α-(piperidinyl-N-ethyl)glycyl]-L-lysine Trifluoroacetic Acid Salt] the Ki [1] was over 300 nM.
Molecule `Cc1ccc(S(=O)(=O)N(CC(C)C)[C@@H](CCCCNC(=O)CNCCN2CCOCC2)C(=O)O)cc1` [Example 111, Nα-Isobutyl-Nα-(4-methylbenzenesulfonyl)-Nε-[N′α-(4-niorpholinyl-N-ethyl)glycyl]-L-lysine] has a Ki of over 300 nM.
Molecule `Cc1ccc(S(=O)(=O)N(CC(C)C)[C@@H](CCCCNC(=O)CNc2ccncc2)C(=O)O)cc1` [Example 112, Nα-Isobutyl-Nα-(4-methylbenzenesulfonyl)-Nε-[N′α-(4-pyridyl)glycyl]-L-lysine] has a Ki [1] of over 300 nM.
In the case of `Cc1ccc(S(=O)(=O)N(CC(C)C)[C@@H](CCCCNC(=O)CNc2cnc3ccccc3c2)C(=O)O)cc1` [Example 113, Nα-Isobutyl-Nα-(4-methylbenzenesulfonyl)-Nε-[N′α-(3-quinolyl)glycyl]-L-lysine], the Ki is reported as 12 nM.
`Cc1ccc(S(=O)(=O)N(CC(C)C)[C@@H](CCCCNC(=O)CN(Cc2ccccc2)c2ccccc2)C(=O)O)cc1` [Example 114, Nα-Isobutyl-Nα-(4-methylbenzenesulfonyl)-Nε-(N′α-benzyl-N′α-phenylglycyl)-L-lysine] showed a Ki [1] of 0.937 nM.
Molecule `Cc1ccc(S(=O)(=O)N(CC(C)C)[C@@H](CCCCNC(=O)CN(C)c2ccccc2)C(=O)O)cc1` [Example 115, Nα-Isobutyl-Nα-(4-methylbenzenesulfonyl)-Nε-(N′α-methyl-N′α-phenylglycyl)-L-lysine] has a Ki [1] of 12 nM.
Molecule `Cc1ccc(S(=O)(=O)N[C@@H](Cc2c[nH]c3ccccc23)C(=O)NCCCC[C@@H](C=O)N(CC(C)C)S(=O)(=O)c2ccc(C)cc2)cc1` [Example 116, (2S,2′S) 2-N-Isobutyl-2-N-(4-methylbenzenesulfonyl)-6-N-[N′α-(4-methylbenzenesulfonyl)-S-tryptophanyl]-2,6-diaminohexanal] has a Ki [1] of over 300 nM.
In the case of `Cc1ccc(S(=O)(=O)N(CC(C)C)[C@H](CO)CCCCNC(=O)[C@H](Cc2c[nH]c3ccccc23)NC(=O)C(C)(C)C)cc1` [Example 117, (2S,2′S) 2-N-Isobutyl-2-N-(4-methylbenzenesulfonyl)-6-N-(N′α-pivaloyl-S-tryptophanyl)-2,6-diaminohexanol], the Ki is reported as 0.428 nM.
`CC(=O)N[C@@H](Cc1ccccc1)C(=O)NCCCC[C@@H](CO)N(CC(C)C)S(=O)(=O)c1ccc(C)cc1` [Example 118, (2S,2′S) 2-N-Isobutyl-2-N-(4-methylbenzenesulfonyl)-6-N-(N′α-acetyl-S-phenylalanyl)-2,6-diaminohexanol] gave a Ki of 13 nM.
Molecule `Cc1ccc(S(=O)(=O)N(CC(C)C)[C@H](CO)CCCCNC(=O)[C@H](Cc2ccccc2)NC(=O)C(C)(C)C)cc1` [Example 119, (2S,2′S) 2-N-Isobutyl-2-N-(4-methylbenzenesulfonyl)-6-N-(N′α-pivaloyl-S-phenylalanyl)-2,6-diaminohexanol] has a Ki of 3.9 nM.
